Results published in PMC6152127, “Facile Synthesis of Novel Coumarin Derivatives, Antimicrobial Analysis, Enzyme Assay, Docking Study, ADMET Prediction and Toxicity Study” (Molecules : A Journal of Synthetic Chemistry and Natural …, 2017).
≈ marks a conversion by molar mass, not a printed value.

Tests used:
[1] = test system: HeLa (Human cervical cancer cell line); assay: In vitro cytotoxicity, Sulforhodamine B (SRB) assay; format: cell-based; settings: for GI50: Homo sapiens, HeLa, SRB assay, concentration range 50 to 0.78 μg/mL; for cell inhibition HeLa: up to 50 µg/mL concentration, Figure 4
Experimental: To examine the safety of the synthesized compounds, the compounds 4e and 4k were evaluated for their toxicity against the HeLa human cervical cancer cell line by a Sulforhodamine B (SRB) assay using Adriamycin as a standard drug.
In vitro cytotoxicity study of the synthesized compounds 4e and 4k was performed against HeLa (Human cervical cancer cell line) by Sulforhodamine B (SRB) assay using Adriamycin as positive control. The images were captured using an Eclipse Ti-S Inverted Research Microscope (Nikon, Tokyo, Japan). Image processing software used was NIS-Elements.

[2] = test system: Aspergillus flavus (NCIM-539); assay: In vitro antifungal activity, MIC, agar method (CLSI); format: cell-based; settings: NCIM539, average of three readings
Experimental: (§1) The newly synthesized 3-((dicyclohexylamino)(substituted phenyl/heteryl)methyl)-4-hydroxy-2H-chromen-2-one derivatives 4a–o were screened for their in vitro antifungal activity against different yeast and filamentous fungal pathogens. […] Dimethyl sulfoxide (DMSO) was used as solvent control.
(§2) All the synthesized compounds were screened for their in vitro antifungal and antibacterial activity. The antibacterial activity was evaluated against three human pathogenic bacterial strains: Escherichia coli (NCIM-2256), Bacillus subtilis (NCIM-2063) and Staphylococcus aureus (NCIM-2901). The antifungal activity was evaluated against seven human pathogenic fungal strains: Candida albicans (NCIM-3471), Candida glabrata (NCYC-388), Fusarium oxysporum (NCIM-1332), Aspergillus fumigates (NCIM-902), Aspergillus flavus (NCIM-539), Aspergillus niger (NCIM-1196) and Cryptococcus neoformans (NCIM-576), which are often encountered clinically. […] Minimum inhibitory concentration (MIC) values were determined as per CLSI guidelines. Dimethyl sulfoxide (DMSO) was used as solvent control.
(§3) Antifungal activity was determined as per CLSI (formerly, NCCLS) guidelines. […] The medium yeast nitrogen base was dissolved in phosphate buffer pH 7 and it was autoclaved at 110 °C for 10 min. With each set a growth control without the antifungal agent and solvent control DMSO were included. The fungal strains were freshly sub cultured on to Sabouraud dextrose agar (SDA) and incubated at 25 °C for 72 h. The fungal cells were suspended in sterile distilled water and diluted to get 10^5 cells/mL. Ten μL of the standardized suspension was inoculated onto the control plates and the media incorporated with the antifungal agents. The inoculated plates were incubated at 25 °C for 48 h. The readings were taken at the end of 48 h and 72 h. The MIC was the lowest concentration of drug preventing growth of macroscopically visible colonies on drug containing plates when there was visible growth on the drug free control plates.

[3] = test system: Aspergillus fumigates (NCIM-902); assay: as above; format: cell-based; settings: NCIM902, average of three readings
Experimental: as §1, §2, §3

[4] = test system: Aspergillus niger (NCIM-1196); assay: as above; format: cell-based; settings: NCIM1196, average of three readings
Experimental: as §1, §2, §3

[5] = test system: Candida albicans (NCIM-3471); assay: as above; format: cell-based; settings: NCIM3471, average of three readings
Experimental: as §1, §2, §3

[6] = test system: Candida glabrata (NCYC-388); assay: as above; format: cell-based; settings: Nakaseomyces glabratus; average of three readings
Experimental: as §1, §2, §3

[7] = test system: Cryptococcus neoformans (NCIM-576); assay: as above; format: cell-based; settings: NCIM576, average of three readings
Experimental: as §1, §2, §3

[8] = test system: Fusarium oxysporum (NCIM-1332); assay: as above; format: cell-based; settings: NCIM1332, average of three readings
Experimental: as §1, §2, §3

[9] = test system: Bacillus subtilis (NCIM-2063); assay: In vitro antibacterial activity, MIC; format: cell-based; settings: average of three readings; for MIC: Bacillus subtilis, NCIM2063
Experimental: (§4) The newly synthesized compounds 4a–o were screened for their in vitro antibacterial activity against the three different bacterial strains. Minimum inhibitory concentration (MIC) values for antibacterial activity were determined by standard agar method using Ampicillin as standard drug. Dimethyl sulfoxide (DMSO) was used as solvent control. […] Compound 4e bearing a 2,4-difluoro group on the phenyl ring was 48 µg/mL for E. coli, 50 µg/mL for B. subtilis and 52 µg/mL for S. aureus.
(§5) All the synthesized compounds were screened for their in vitro antifungal and antibacterial activity. The antibacterial activity was evaluated against three human pathogenic bacterial strains: Escherichia coli (NCIM-2256), Bacillus subtilis (NCIM-2063) and Staphylococcus aureus (NCIM-2901). The antifungal activity was evaluated against seven human pathogenic fungal strains: Candida albicans (NCIM-3471), Candida glabrata (NCYC-388), Fusarium oxysporum (NCIM-1332), Aspergillus fumigates (NCIM-902), Aspergillus flavus (NCIM-539), Aspergillus niger (NCIM-1196) and Cryptococcus neoformans (NCIM-576), which are often encountered clinically. Miconazole was used as standard drug. Minimum inhibitory concentration (MIC) values were determined as per CLSI guidelines. Dimethyl sulfoxide (DMSO) was used as solvent control.
(§6) All the synthesized compounds 4a–o were screened for their in vitro antibacterial activity. Minimum inhibitory concentration (MIC) values were determined using method recommended by National Committee for Clinical Laboratory Standards (NCCLS). In vitro antibacterial activities of the synthesized compounds 4a–o were tested in Nutrient Broth (NB) for bacteria by the two fold serial dilution method. Seeded broth (broth containing microbial spores) was prepared in NB from 24 h old bacterial cultures on nutrient agar (Hi-media) at 37± 1 °C. The bacterial suspension was adjusted with sterile saline to a concentration of 1× 10^−4–10^−5 C.F.U. The synthesized compounds and standard drug Ampicillin were prepared by two fold serial dilutions to obtain the required concentrations of 400, 200, 100, 50, 25, 12.5, 6.25 and 3.13 μg/mL. The tubes were incubated in BOD incubators at 37± 1 °C for bacteria. The MICs were recorded by visual observations after 24 h (for bacteria) of incubation.

[10] = test system: Escherichia coli (NCIM-2256); assay: In vitro antibacterial activity, MIC; format: cell-based; settings: average of three readings; for MIC: Escherichia coli, NCIM2256
Experimental: as §4, §5, §6

[11] = test system: Staphylococcus aureus (NCIM-2901); assay: In vitro antibacterial activity, MIC; format: cell-based; settings: average of three readings; for MIC: Staphylococcus aureus, NCIM2901
Experimental: as §4, §5, §6

Swiss albino mice = assay: In vivo acute oral toxicity study and behavioral study (OECD guideline no. 425); set-up: key to Straub Tail / Pilo Erection / Convulsions / Normal Motor Activity / Stereotypy / Tremors / Sedation / Hypnosis / Muscle Spasms / Toxicity / Deaths / Eye Lacrimation / Salivation / Diarrhea / Respiration Problems: N: no; Y: yes; settings: for Convulsions / Deaths / Diarrhea / Eye Lacrimation / Hypnosis / Muscle Spasms / Normal Motor Activity / Pilo Erection / Respiration Problems / Salivation / Sedation / Stereotypy / Straub Tail / Toxicity / Tremors: Swiss albino mice, single oral dose 100–2000 mg/kg; for lethal dose: oral, mice, body weight, no mortality up to 2000 mg/kg
Experimental: In vivo acute oral toxicity study and gross behavioral studies of the newly synthesized compounds 4e and 4k is shown in Table 5.
425 using Swiss albino mice (18–22 gm weight) quarantined at animal house at Y.B. Chavan College of Pharmacy, Aurangabad IAEC approval number CPCSEA/IAEC/P’col-52/2015-16/115. Each group consists of six mice (overnight fasted) and kept in colony cage at 25 ± 2 °C with 55% relative humidity and 12 h of light and dark cycle. A specified dose of 100, 250, 500, 750, 1000, 1500 and 2000 mg/kg body weight of mice was administered orally as a single dose. The acute toxic symptoms and the behavioral changes produced by the synthesized compounds were observed continuously for 4 h periods at 8th, 12th and 24th h on set of toxic symptoms and the gross behavioral changes were also recorded. These animals were maintained for further 10 days with observation made daily.

[12] = test system: ergosterol biosynthesis in C. albicans; assay: Ergosterol extraction and quantitation assay; format: cell-based, Candida albicans (NCIM-3471); settings: at the MIC value (25 µg/mL), C. albicans NCIM3471
Experimental: A single Candida albicans (NCIM-3471) colony from an overnight Sabouraud dextrose agar plate culture was used to inoculate 50 mL of Sabouraud dextrose broth for control and for various concentrations of the molecules. […] The net weight of the cell pellet was determined. […] Cell suspensions were transferred to sterile borosilicate glass screw-cap tubes and were incubated in an 85 °C water bath for one hour. Following incubation, the tubes were allowed to cool. […] The heptane layer was transferred to a clean borosilicate glass screw-cap tube and stored at −20 °C. […] The absence of detectable ergosterol in extracts was indicated by a flat line.

| SMILES | GI50 [1] | MIC [2] | MIC [3] | MIC [4] | MIC [5] | MIC [6] | MIC [7] | MIC [8] | MIC [9] | MIC [10] | MIC [11] | cell inhibition HeLa [1] | Convulsions (Swiss albino mice) | Deaths (Swiss albino mice) | Diarrhea (Swiss albino mice) | Eye Lacrimation (Swiss albino mice) | Hypnosis (Swiss albino mice) | Muscle Spasms (Swiss albino mice) | Normal Motor Activity (Swiss albino mice) | Pilo Erection (Swiss albino mice) | also measured |
| --- | --- | --- | --- | --- | --- | --- | --- | --- | --- | --- | --- | --- | --- | --- | --- | --- | --- | --- | --- | --- | --- |
| COc1cccc2c1C(=O)c1c(O)c3c(c(O)c1C2=O)C[C@@](O)(C(=O)CO)C[C@@H]3O[C@H]1C[C@H](N)[C@H](O)[C@H](C)O1 [Adriamycin, reference compound] | 0.5 µg/mL (≈ 0.92 µM) | – | – | – | – | – | – | – | – | – | – | – | – | – | – | – | – | – | – | – | – |
| O=c1oc2ccccc2c(O)c1C(c1ccc(F)cc1F)N(C1CCCCC1)C1CCCCC1 (stereo not drawn) [Compound 4e, 3-((Dicyclohexylamino)(2,4-difluorophenyl)methyl)-4-hydroxy-2H-chromen-2-one] | > 50 µg/mL | 12 µg/mL (≈ 25.7 µM) | 28 µg/mL (≈ 59.9 µM) | 12 µg/mL (≈ 25.7 µM) | 28 µg/mL (≈ 59.9 µM) | 26 µg/mL (≈ 55.6 µM) | 12 µg/mL (≈ 25.7 µM) | 30 µg/mL (≈ 64.2 µM) | 50 µg/mL (≈ 107 µM) | 48 µg/mL (≈ 103 µM) | 52 µg/mL (≈ 111 µM) | did not take place | N | N | N | N | N | N | Y | N | MIC Bacillus subtilis [9]: 50 µg/mL (≈ 107 µM); MIC Escherichia coli [10]: 48 µg/mL (≈ 103 µM); MIC Staphylococcus aureus [11]: 52 µg/mL (≈ 111 µM); Respiration Problems (Swiss albino mice): N; Salivation (Swiss albino mice): N; Sedation (Swiss albino mice): N; Stereotypy (Swiss albino mice): N; Straub Tail (Swiss albino mice): N; Toxicity (Swiss albino mice): N; Tremors (Swiss albino mice): N; lethal dose (Swiss albino mice): above 2000 mg/kg |
| COc1cc(C(c2c(O)c3ccccc3oc2=O)N(C2CCCCC2)C2CCCCC2)ccc1O (stereo not drawn) [Compound 4k, 3-((Dicyclohexylamino)(4-hydroxy-3-methoxyphenyl)methyl)-4-hydroxy-2H-chromen-2-one] | > 50 µg/mL | 12 µg/mL (≈ 25.1 µM) | 38 µg/mL (≈ 79.6 µM) | 15 µg/mL (≈ 31.4 µM) | 25 µg/mL (≈ 52.3 µM) | 30 µg/mL (≈ 62.8 µM) | 15 µg/mL (≈ 31.4 µM) | 28 µg/mL (≈ 58.6 µM) | 55 µg/mL (≈ 115 µM) | 55 µg/mL (≈ 115 µM) | 54 µg/mL (≈ 113 µM) | did not take place | N | N | N | N | N | N | Y | N | UV sterol profile, ergosterol peak at 281.5 nm [12]: almost a flat curve; Respiration Problems (Swiss albino mice): N; Salivation (Swiss albino mice): N; Sedation (Swiss albino mice): N; Stereotypy (Swiss albino mice): N; Straub Tail (Swiss albino mice): N; Toxicity (Swiss albino mice): N; Tremors (Swiss albino mice): N; lethal dose (Swiss albino mice): above 2000 mg/kg |
| O=c1oc2ccccc2c(O)c1C(c1ccco1)N(C1CCCCC1)C1CCCCC1 (stereo not drawn) [Compound 4o, 3-((Dicyclohexylamino)(furan-2-yl)methyl)-4-hydroxy-2H-chromen-2-one] | – | 46 µg/mL (≈ 109 µM) | 65 µg/mL (≈ 154 µM) | 49 µg/mL (≈ 116 µM) | 56 µg/mL (≈ 133 µM) | 55 µg/mL (≈ 130 µM) | 48 µg/mL (≈ 114 µM) | 55 µg/mL (≈ 130 µM) | 74 µg/mL (≈ 176 µM) | 66 µg/mL (≈ 157 µM) | 70 µg/mL (≈ 166 µM) | – | – | – | – | – | – | – | – | – | melting point: 148 to 150 °C |
